From the supplement of paper PMC10307832

Experiments:
Assay in all cases: relative viability (nuclei count vs DMSO), 5 days (fraction); higher = more cells survive
Daporinad + Alpelisib = compound: O=C(/C=C/c1cccnc1)NCCCCC1CCN(C(=O)c2ccccc2)CC1 [Daporinad] + Cc1nc(NC(=O)N2CCC[C@H]2C(N)=O)sc1-c1ccnc(C(C)(C)C(F)(F)F)c1 [Alpelisib] (partner 2 µM)
In short: (§1)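 For relative viability, nuclei counts in treated wells were divided by those in vehicle wells. Lung cancer cell lines had been pin-tool dosed in 1536-well plates the day after seeding and cultured for 5 days, then fixed and stained in one step (final 0.05% Triton X-100, 1% formaldehyde, 1 ug/ml Hoechst) and imaged at 4×. Doses were one drug alone or a fixed anchor-drug dose plus five library-drug doses (not always all listed) in √10 steps, and values are duplicate-plate medians.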

Daporinad + OSI-027 = compound: O=C(/C=C/c1cccnc1)NCCCCC1CCN(C(=O)c2ccccc2)CC1 [Daporinad] + COc1cccc2cc(-c3nc([C@H]4CC[C@H](C(=O)O)CC4)n4ncnc(N)c34)[nH]c12 [OSI-027] (partner 0.5 µM)
In short: as §1

Daporinad + Linsitinib = compound: O=C(/C=C/c1cccnc1)NCCCCC1CCN(C(=O)c2ccccc2)CC1 [Daporinad] + C[C@]1(O)C[C@@H](c2nc(-c3ccc4ccc(-c5ccccc5)nc4c3)c3c(N)nccn32)C1 [Linsitinib] (partner 1 µM)
In short: as §1

Daporinad + Vorinostat = compound: O=C(/C=C/c1cccnc1)NCCCCC1CCN(C(=O)c2ccccc2)CC1 [Daporinad] + O=C(CCCCCCC(=O)Nc1ccccc1)NO [Vorinostat] (partner 1 µM)
In short: as §1

201T
relative viability (Daporinad + Alpelisib; first compound 0.0005 µM): 0.983 | relative viability (Daporinad + Alpelisib; first compound 0.001581 µM): 1.05 | relative viability (Daporinad + Alpelisib; first compound 0.005 µM): 1 | relative viability (Daporinad + Alpelisib; first compound 0.01581 µM): 0.987 | relative viability (Daporinad + OSI-027; first compound 0.0005 µM): 0.745 | relative viability (Daporinad + OSI-027; first compound 0.001581 µM): 0.612 | relative viability (Daporinad + OSI-027; first compound 0.005 µM): 0.794 | relative viability (Daporinad + OSI-027; first compound 0.01581 µM): 0.795 | relative viability (Daporinad + Linsitinib; first compound 0.0005 µM): 0.998 | relative viability (Daporinad + Linsitinib; first compound 0.001581 µM): 0.973 | relative viability (Daporinad + Linsitinib; first compound 0.005 µM): 1.04 | relative viability (Daporinad + Linsitinib; first compound 0.01581 µM): 1.02 | relative viability (Daporinad + Vorinostat; first compound 0.0005 µM): 0.965 | relative viability (Daporinad + Vorinostat; first compound 0.001581 µM): 1.08 | relative viability (Daporinad + Vorinostat; first compound 0.005 µM): 1.05 | relative viability (Daporinad + Vorinostat; first compound 0.01581 µM): 1.04

HCC-44
relative viability (Daporinad + Alpelisib; first compound 0.0005 µM): 0.817 | relative viability (Daporinad + Alpelisib; first compound 0.001581 µM): 0.937 | relative viability (Daporinad + Alpelisib; first compound 0.005 µM): 0.825 | relative viability (Daporinad + Alpelisib; first compound 0.01581 µM): 0.864 | relative viability (Daporinad + OSI-027; first compound 0.0005 µM): 0.481 | relative viability (Daporinad + OSI-027; first compound 0.001581 µM): 0.608 | relative viability (Daporinad + OSI-027; first compound 0.005 µM): 0.462 | relative viability (Daporinad + OSI-027; first compound 0.01581 µM): 0.639 | relative viability (Daporinad + Linsitinib; first compound 0.0005 µM): 0.655 | relative viability (Daporinad + Linsitinib; first compound 0.001581 µM): 0.635 | relative viability (Daporinad + Linsitinib; first compound 0.005 µM): 0.762 | relative viability (Daporinad + Linsitinib; first compound 0.01581 µM): 0.714 | relative viability (Daporinad + Vorinostat; first compound 0.0005 µM): 0.928 | relative viability (Daporinad + Vorinostat; first compound 0.001581 µM): 1.18 | relative viability (Daporinad + Vorinostat; first compound 0.005 µM): 1.19 | relative viability (Daporinad + Vorinostat; first compound 0.01581 µM): 1.03

NCI-H647
relative viability (Daporinad + Alpelisib; first compound 0.0005 µM): 1.2 | relative viability (Daporinad + Alpelisib; first compound 0.001581 µM): 1.07 | relative viability (Daporinad + Alpelisib; first compound 0.005 µM): 1.19 | relative viability (Daporinad + Alpelisib; first compound 0.01581 µM): 1.05 | relative viability (Daporinad + OSI-027; first compound 0.0005 µM): 0.583 | relative viability (Daporinad + OSI-027; first compound 0.001581 µM): 0.598 | relative viability (Daporinad + OSI-027; first compound 0.005 µM): 0.647 | relative viability (Daporinad + OSI-027; first compound 0.01581 µM): 0.735 | relative viability (Daporinad + Linsitinib; first compound 0.0005 µM): 1.06 | relative viability (Daporinad + Linsitinib; first compound 0.001581 µM): 1.07 | relative viability (Daporinad + Linsitinib; first compound 0.005 µM): 1.24 | relative viability (Daporinad + Linsitinib; first compound 0.01581 µM): 0.983 | relative viability (Daporinad + Vorinostat; first compound 0.0005 µM): 0.527 | relative viability (Daporinad + Vorinostat; first compound 0.001581 µM): 0.483 | relative viability (Daporinad + Vorinostat; first compound 0.005 µM): 0.534 | relative viability (Daporinad + Vorinostat; first compound 0.01581 µM): 0.49

H3255
relative viability (Daporinad + Alpelisib; first compound 0.0005 µM): 0.696 | relative viability (Daporinad + Alpelisib; first compound 0.001581 µM): 0.812 | relative viability (Daporinad + Alpelisib; first compound 0.005 µM): 0.725 | relative viability (Daporinad + Alpelisib; first compound 0.01581 µM): 0.702 | relative viability (Daporinad + OSI-027; first compound 0.0005 µM): 0.476 | relative viability (Daporinad + OSI-027; first compound 0.001581 µM): 0.596 | relative viability (Daporinad + OSI-027; first compound 0.005 µM): 0.587 | relative viability (Daporinad + OSI-027; first compound 0.01581 µM): 0.633 | relative viability (Daporinad + Linsitinib; first compound 0.0005 µM): 0.913 | relative viability (Daporinad + Linsitinib; first compound 0.001581 µM): 0.951 | relative viability (Daporinad + Linsitinib; first compound 0.005 µM): 1.03 | relative viability (Daporinad + Linsitinib; first compound 0.01581 µM): 1.13 | relative viability (Daporinad + Vorinostat; first compound 0.0005 µM): 0.668 | relative viability (Daporinad + Vorinostat; first compound 0.001581 µM): 0.591 | relative viability (Daporinad + Vorinostat; first compound 0.005 µM): 0.775 | relative viability (Daporinad + Vorinostat; first compound 0.01581 µM): 0.979

NCI-H650
relative viability (Daporinad + Alpelisib; first compound 0.0005 µM): 1.08 | relative viability (Daporinad + Alpelisib; first compound 0.001581 µM): 1.24 | relative viability (Daporinad + Alpelisib; first compound 0.005 µM): 1.32 | relative viability (Daporinad + Alpelisib; first compound 0.01581 µM): 1.38 | relative viability (Daporinad + OSI-027; first compound 0.0005 µM): 0.477 | relative viability (Daporinad + OSI-027; first compound 0.001581 µM): 0.415 | relative viability (Daporinad + OSI-027; first compound 0.005 µM): 0.525 | relative viability (Daporinad + OSI-027; first compound 0.01581 µM): 0.626 | relative viability (Daporinad + Linsitinib; first compound 0.0005 µM): 0.832 | relative viability (Daporinad + Linsitinib; first compound 0.001581 µM): 1.3 | relative viability (Daporinad + Linsitinib; first compound 0.005 µM): 0.883 | relative viability (Daporinad + Linsitinib; first compound 0.01581 µM): 1.16 | relative viability (Daporinad + Vorinostat; first compound 0.0005 µM): 0.465 | relative viability (Daporinad + Vorinostat; first compound 0.001581 µM): 0.488 | relative viability (Daporinad + Vorinostat; first compound 0.005 µM): 0.511 | relative viability (Daporinad + Vorinostat; first compound 0.01581 µM): 0.399

NCI-H2023
relative viability (Daporinad + Alpelisib; first compound 0.0005 µM): 0.656 | relative viability (Daporinad + Alpelisib; first compound 0.001581 µM): 0.636 | relative viability (Daporinad + Alpelisib; first compound 0.005 µM): 0.689 | relative viability (Daporinad + Alpelisib; first compound 0.01581 µM): 0.651 | relative viability (Daporinad + OSI-027; first compound 0.0005 µM): 0.35 | relative viability (Daporinad + OSI-027; first compound 0.001581 µM): 0.458 | relative viability (Daporinad + OSI-027; first compound 0.005 µM): 0.395 | relative viability (Daporinad + OSI-027; first compound 0.01581 µM): 0.455 | relative viability (Daporinad + Linsitinib; first compound 0.0005 µM): 0.764 | relative viability (Daporinad + Linsitinib; first compound 0.001581 µM): 0.723 | relative viability (Daporinad + Linsitinib; first compound 0.005 µM): 0.768 | relative viability (Daporinad + Linsitinib; first compound 0.01581 µM): 0.686 | relative viability (Daporinad + Vorinostat; first compound 0.0005 µM): 0.848 | relative viability (Daporinad + Vorinostat; first compound 0.001581 µM): 0.667 | relative viability (Daporinad + Vorinostat; first compound 0.005 µM): 0.715 | relative viability (Daporinad + Vorinostat; first compound 0.01581 µM): 0.631

NCI-H23
relative viability (Daporinad + Alpelisib; first compound 0.0005 µM): 0.69 | relative viability (Daporinad + Alpelisib; first compound 0.001581 µM): 0.776 | relative viability (Daporinad + Alpelisib; first compound 0.005 µM): 0.782 | relative viability (Daporinad + Alpelisib; first compound 0.01581 µM): 0.416 | relative viability (Daporinad + OSI-027; first compound 0.0005 µM): 0.544 | relative viability (Daporinad + OSI-027; first compound 0.001581 µM): 0.472 | relative viability (Daporinad + OSI-027; first compound 0.005 µM): 0.637 | relative viability (Daporinad + OSI-027; first compound 0.01581 µM): 0.545 | relative viability (Daporinad + Linsitinib; first compound 0.0005 µM): 0.699 | relative viability (Daporinad + Linsitinib; first compound 0.001581 µM): 0.518 | relative viability (Daporinad + Linsitinib; first compound 0.005 µM): 0.537 | relative viability (Daporinad + Linsitinib; first compound 0.01581 µM): 0.279 | relative viability (Daporinad + Vorinostat; first compound 0.0005 µM): 0.624 | relative viability (Daporinad + Vorinostat; first compound 0.001581 µM): 0.251 | relative viability (Daporinad + Vorinostat; first compound 0.005 µM): 0.586 | relative viability (Daporinad + Vorinostat; first compound 0.01581 µM): 0.2

NCI-H596
relative viability (Daporinad + Alpelisib; first compound 0.0005 µM): 0.539 | relative viability (Daporinad + Alpelisib; first compound 0.001581 µM): 0.551 | relative viability (Daporinad + Alpelisib; first compound 0.005 µM): 0.617 | relative viability (Daporinad + Alpelisib; first compound 0.01581 µM): 0.372 | relative viability (Daporinad + OSI-027; first compound 0.0005 µM): 0.553 | relative viability (Daporinad + OSI-027; first compound 0.001581 µM): 0.674 | relative viability (Daporinad + OSI-027; first compound 0.005 µM): 0.758 | relative viability (Daporinad + OSI-027; first compound 0.01581 µM): 0.656 | relative viability (Daporinad + Linsitinib; first compound 0.0005 µM): 1.06 | relative viability (Daporinad + Linsitinib; first compound 0.001581 µM): 1.15 | relative viability (Daporinad + Linsitinib; first compound 0.005 µM): 1.19 | relative viability (Daporinad + Linsitinib; first compound 0.01581 µM): 0.477 | relative viability (Daporinad + Vorinostat; first compound 0.0005 µM): 0.582 | relative viability (Daporinad + Vorinostat; first compound 0.001581 µM): 0.321 | relative viability (Daporinad + Vorinostat; first compound 0.005 µM): 0.737 | relative viability (Daporinad + Vorinostat; first compound 0.01581 µM): 0.4
